Results reported in patent US4133876A, “Antibiotic A-32887 and process for production thereof” (Eli Lilly and Company, priority 1977, dated 1979).

Columns and labels:
[1] = system: Pasteurella multocida (bovine); assay: Standard agar-dilution assay, MIC (Table VI); format: cell-based
Text: (§1) Antibiotic A-32887 inhibits the growth of pathogenic bacteria, especially gram-positive bacteria. Table VI summarizes the minimal inhibitory concentrations (MIC), as measured by standard agar-dilution assays, at which A-32887 (Na-K salt) inhibits certain bacteria.

[2] = system: Staphylococcus aureus 3055; assay: Standard agar-dilution assay, MIC (Table VI); format: cell-based
Text: as §1

Staphylococcus sp. = assay: Standard agar-dilution assay, MIC (Table VI); format: cell-based
Text: as §1

Streptococcus faecalis = assay: Standard agar-dilution assay, MIC (Table VI); format: cell-based
Text: as §1

Streptococcus sp. = assay: Standard agar-dilution assay, MIC (Table VI); format: cell-based
Text: as §1

Mycoplasma gallisepticum = assay: In vitro broth-dilution studies, mycoplasma (Table X); format: cell-based
Text: (§2) Activity against mycoplasma is another useful aspect of the antimicrobial activity of the A-32887 compounds. Mycoplasma species, also known as pleuropneumonia-like (PPLO) organisms, are pathogenic to man and various animals. Anti-mycoplasma agents are especially needed by the poultry industry. The MIC's of A-32887 (Na-K salt) against typical mycoplasma species, as determined by in vitro broth-dilution studies, are summarized in Table X: […]

Mycoplasma hyopneumoniae = assay: as above; format: cell-based
Text: as §2

Mycoplasma hyorhinis = assay: as above; format: cell-based
Text: as §2

Mycoplasma synoviae = assay: as above; format: cell-based
Text: as §2

[3] = Acute toxicity, intraperitoneal, mice; format: in vivo; settings: intraperitoneally
E. tenella and E. maxima = assay: Anticoccidial activity in chicks (Table XI); format: in vivo; set-up: Average Lesion Score, Total Intestinal / Average Lesion Score, Cecal: scale not given here; settings: for Mortality: due to coccidiosis; for Feed/Gain: pens without deaths only; for Average Weight Gain: per survivor
Method: ^1 70,000 oocysts/bird of each of E. tenella and E. maxima
^2 Infected 48 hours postmedication; terminated seven days
^3 Four replicates; five birds/replicate
^6 Pens without deaths only

[4] = system: E. tenella and E. acervulina; assay: Anticoccidial activity in chicks (Table XII); format: in vivo; set-up: Average Lesion Score, Intestinal / Average Lesion Score, Cecal: scale not given here; settings: for Oocysts Per Bird: days 7-9; for Percent Mortality: due to coccidiosis; for Percent Weight Gain: normal controls = 100%
Method: ^1 6 replicates; 5 birds each
^2 Infection inoculum 48 hours post-medication onset
^4 Normal controls = 100%

[5] = system: E. tenella, E. maxima and E. acervulina; assay: Anticoccidial activity in chicks (Table XIII); format: in vivo; set-up: Average Lesion Score, Intestinal / Average Lesion Score, Cecal: scale not given here; settings: for Percent Mortality: due to coccidiosis; for Percent Weight Gain: per survivor; for Oocysts/Bird: total days 5, 6 and 7 post-inoculation; for Feed/Gain: pens without deaths only
Text: ^2 Six replicates; 5 birds/each
^5 Pens without deaths, only
^6 Total days 5, 6 and 7 post-inoculation

coccidia = assay: Feeding experiments in young chickens challenged with coccidia; format: in vivo, Eimeria species; settings: feed levels as low as 40 ppm
rumen flora = assay: Volatile-fatty-acid (VFA) production in treated vs control flasks (Table XIV)
[6] = Ruminal VFA in fistulated feed-lot cattle (Table XV); format: in vivo; settings: 30 g/ton, 24-day treatment
Text: The procedure used in testing cattle in this manner is also described in Raun's U.S. Pat. No. 3,839,557 (see Example 9). Table XV summarizes the results of such a test with A-32887 (Na-K salt) wherein five feed-lot cattle weighing approximately 425 kg. were in each group and the mean percent increases in ruminal propionate concentration were averaged over four analyses in a 24-day treatment period.

[7] = Ruminal propionate in sheep (Table XVI); format: in vivo; settings: 15 g/ton, 19-day treatment, control 26.5
Text: Table XVI summarizes the results of a similar test in sheep with A-32887 (Na-K salt) wherein four sheep were in each group and the mean percent increases in ruminal propionate concentration were averaged over four analyses in a 19-day treatment period.

acute swine dysentery = assay: Swine dysentery test in pigs (Table XVII); format: in vivo
Method: In another aspect the A-32887 compounds are useful in the prevention and control of swine dysentery. A preferred method of administration to swine is by incorporation of an appropriate amount of an A-32887 compound into the feed ration. […] In this test, groups of four pigs were challenged orally with 5.0 ml of a colon-content/tissue suspension prepared from pigs suffering from acute swine dysentery. Treated pigs were challenged 24 hours after initiating feed treatment. The test was carried out over a period of 26 days, observing pigs daily, and weighing them weekly and on day 26.
*Fecal material for each group was rated daily with 0=normal, 1=slight
blood or mucus, 2=moderate blood or mucus, 3=marked blood or mucus. Index
is the total score per treatment for 25 days.

powdery mildew = assay: Powdery mildew disease in bean plants, spray; format: in vivo; settings: 400 ppm spray
Text: The A-32887 compounds are also useful in the treatment of certain plant diseases.

ATPase = ATPase inhibition in vitro using NaCl; format: biochemical
Text: In yet another aspect, the A-32887 compounds are active as inhibitors of the enzyme ATPase. ATPase, an alkali-metal-sensitive enzyme found in cell membranes, is involved in the energy necessary for active transport. "Active transport" refers to the energy-requiring series of operations whereby intracellular and extracellular fluids maintain their compositions. Inhibitors of ATPase reduce the energy required for active transport.

guinea pig left atria = assay: Cardiac contractility of guinea pig left atria; settings: 10^-5 molar; percentage of maximal force elicited by a challenge dose of norepinephrine
Text: The A-32887 compounds are potential cardiotonic agents. In tests using guinea pig left atria, A-32887 (Na-K salt) increased cardiac contractility. Response to this test is expressed as a percentage of the maximal force that could be elicited by a challenge dose of norepinephrine. A-32887 (Na-K salt), at a 10^-5 molar concentration, increased cardiac contractility by 28.0 ± 7.1 percent.

CO[C@H]1CC[C@H](OC2[C@@H](C)[C@@](C)(O)O[C@H]([C@H]3CC[C@H]([C@@H]4CC[C@H]([C@@]5(C)O[C@]6(O[C@H](C[C@@H]7O[C@](O)([C@@H](O)C(=O)O)[C@@H](C)[C@H](OC)[C@@]7(C)OC)C[C@@H](OC)[C@H]6C)[C@H](C)[C@H]5OC)O4)O3)[C@H]2C)O[C@@H]1C.[K+].[Na+] (some centres unmarked) [A-32887 (Na-K salt)]
MIC [1]: 50.00 µg/mL
MIC [2]: 6.25 µg/mL
MIC (Staphylococcus sp.): 1.56 µg/mL
MIC (Streptococcus faecalis): 6.25 µg/mL
MIC (Streptococcus sp.): 3.12 µg/mL
MIC (Mycoplasma gallisepticum): 12.5 µg/mL
MIC (Mycoplasma hyopneumoniae): 6.25 µg/mL
MIC (Mycoplasma hyorhinis): 25.0 µg/mL
MIC (Mycoplasma synoviae): 3.12 µg/mL
LD50 [3]: 37.5 mg/kg × 1
Average Lesion Score, Cecal (E. tenella and E. maxima; 40 ppm): 1.6
Average Lesion Score, Total Intestinal (E. tenella and E. maxima; 40 ppm): 4.9
Mortality (E. tenella and E. maxima; 40 ppm in feed): 0
Feed/Gain (E. tenella and E. maxima; 40 ppm): 1.89
Average Weight Gain (E. tenella and E. maxima; 40 ppm): 176 g
Average Lesion Score, Cecal (E. tenella and E. maxima; 60 ppm): 0.6
Average Lesion Score, Total Intestinal (E. tenella and E. maxima; 60 ppm): 5.9
Mortality (E. tenella and E. maxima; 60 ppm in feed): 0
Feed/Gain (E. tenella and E. maxima; 60 ppm): 1.83
Average Weight Gain (E. tenella and E. maxima; 60 ppm): 155 g
Average Lesion Score, Cecal (E. tenella and E. maxima; 80 ppm): 0.3
Average Lesion Score, Total Intestinal (E. tenella and E. maxima; 80 ppm): 3.0
Mortality (E. tenella and E. maxima; 80 ppm in feed): 0
Feed/Gain (E. tenella and E. maxima; 80 ppm): 1.83
Average Weight Gain (E. tenella and E. maxima; 80 ppm): 182 g
Average Lesion Score, Cecal (E. tenella and E. maxima; 100 ppm): 0
Average Lesion Score, Total Intestinal (E. tenella and E. maxima; 100 ppm): 1.6
Mortality (E. tenella and E. maxima; 100 ppm in feed): 0
Feed/Gain (E. tenella and E. maxima; 100 ppm): 1.87
Average Weight Gain (E. tenella and E. maxima; 100 ppm): 159 g
Average Lesion Score, Cecal ([4]; 62 ppm): 0.1
Average Lesion Score, Intestinal ([4]; 62 ppm): 0.9
Oocysts Per Bird ([4]; 62 ppm): 16.40 1×10^6
Percent Mortality ([4]; 62 ppm): 0%
Percent Weight Gain ([4]; 62 ppm): 97%
Average Lesion Score, Cecal ([4]; 77 ppm): 0
Average Lesion Score, Intestinal ([4]; 77 ppm): 0.7
Oocysts Per Bird ([4]; 77 ppm): 5.48 1×10^6
Percent Mortality ([4]; 77 ppm): 0%
Percent Weight Gain ([4]; 77 ppm): 90%
Average Lesion Score, Cecal ([4]; 100 ppm): 0.1
Average Lesion Score, Intestinal ([4]; 100 ppm): 0.6
Oocysts Per Bird ([4]; 100 ppm): 1.28 1×10^6
Percent Mortality ([4]; 100 ppm): 0%
Percent Weight Gain ([4]; 100 ppm): 85%
Average Lesion Score, Cecal ([4]; 121 ppm): 0
Average Lesion Score, Intestinal ([4]; 121 ppm): 0.3
Oocysts Per Bird ([4]; 121 ppm): 0.4 1×10^6
Percent Mortality ([4]; 121 ppm): 0%
Percent Weight Gain ([4]; 121 ppm): 73%
Average Lesion Score, Cecal ([5]; 25 ppm): 3.9
Average Lesion Score, Intestinal ([5]; 25 ppm): 1.1
Percent Mortality ([5]; 25 ppm): 35%
Percent Weight Gain ([5]; 25 ppm): 57%
Oocysts/Bird ([5]; 25 ppm): 64.83 1×10^6
Average Lesion Score, Cecal ([5]; 50 ppm): 3.8
Average Lesion Score, Intestinal ([5]; 50 ppm): 1.8
Percent Mortality ([5]; 50 ppm): 0%
Feed/Gain ([5]; 50 ppm): 1.67
Percent Weight Gain ([5]; 50 ppm): 79%
Oocysts/Bird ([5]; 50 ppm): 35.78 1×10^6
Average Lesion Score, Cecal ([5]; 75 ppm): 2.0
Average Lesion Score, Intestinal ([5]; 75 ppm): 0.9
Percent Mortality ([5]; 75 ppm): 0%
Feed/Gain ([5]; 75 ppm): 1.49
Percent Weight Gain ([5]; 75 ppm): 90%
Oocysts/Bird ([5]; 75 ppm): 24.35 1×10^6
Average Lesion Score, Cecal ([5]; 100 ppm): 0.1
Average Lesion Score, Intestinal ([5]; 100 ppm): 0
Percent Mortality ([5]; 100 ppm): 0%
Feed/Gain ([5]; 100 ppm): 1.50
Percent Weight Gain ([5]; 100 ppm): 93%
Oocysts/Bird ([5]; 100 ppm): 6.49 1×10^6
Mortality (coccidia): decreases
number of lesions (coccidia): decreases
Ratio of Treated to Control, Total VFA mM/1. (rumen flora; 1 mcg/ml): 0.7498
Ratio of Treated to Control, Molar % Acetate (rumen flora; 10 mcg/ml): 0.8857
Ratio of Treated to Control, Molar % Butyrate (rumen flora; 10 mcg/ml): 0.7012
Ratio of Treated to Control, Total VFA mM/1. (rumen flora; 10 mcg/ml): 1.0086
Ratio of Treated to Control, Molar % Propionate (rumen flora; 10 mcg/ml, * P<0.01): 1.2919
Molar % Butyrate ([6]; control 8.1): 9.6 Molar %
Molar % Propionate ([6]; control 17.4, * P<0.01): 27.1 Molar %
Molar % Acetate ([6]; control 74.5, * P<0.01): 63.3 Molar %
Total VFA ([6]; control 79.9): 79.6 mM/1.
Molar % Propionate [7]: 29.5 Molar %
Final-Average Wt. per Pig (acute swine dysentery; 100 g/ton in feed, 26 days): 30.3 lbs
No. Died per No. in Group (acute swine dysentery; 100 g/ton in feed, 26 days): 0/4
No. with Colon Lesions/No. in Group (acute swine dysentery; 100 g/ton in feed, 26 days): 2/4
Diarrhea Index (acute swine dysentery; 100 g/ton, total score per treatment for 25 days (0=normal to 3=marked blood or mucus)): 22
inhibition of powdery mildew disease (powdery mildew): inhibits powdery mildew disease
ATPase inhibition (ATPase): inhibit ATPase
increase in cardiac contractility (guinea pig left atria): 28.0 ± 7.1%
